Measurements as given in patent US9145444B2, “Compounds and methods associated with differential methylation of human papilloma virus genomes in epithelial cells” (Ruprecht-Karls-Universität Heidelberg, priority 2007, dated 2015).

Tests used:
[1] = test system: normal human firoblasts; settings: normal human fibroblasts; cited from earlier work
[2] = phase I and II trials, systemic therapy; cited from earlier work
[3] = test system: early p97 HPV16 promoter; experiment: luciferase assay of p97 promoter activity in keratinocytes transfected with LCR16_Luc; assay type: cell-based, human
Method: The impact of treatment with epigenetic inhibitors (demethylation agents) on the activity of the p97 promoter is assessed using luciferase assay. Normal human keratinocytes transfected with the reporter plasmid LCR16_Luc, which contains the complete LCR fragment of the HPV-16 cloned in front of the luciferase gene were grown to about 50-60% confluence. Cells were treated with 2 μM and 4 μM 5-azacytidin for 24 and 72 hs.

Structure (SMILES)	basal level and TGFβ-induced collagen biosynthesis [1]	dose-limiting toxicity [2]	most commonly reported non-hematologic adverse effect [2]	p97 promoter activity reduced to ([3]; 2 μM, undifferentiated or differentiated cells, FIG. 9)	p97 promoter activity ([3]; 4 μM, undifferentiated and differentiated cells, FIG. 9)	activity of the early p97 promoter ([3]; normal human keratinocytes, LCR16_Luc reporter, 2 μM and 4 μM for 24 and 72 hs)
Nc1ncn([C@@H]2O[C@H](CO)[C@@H](O)[C@H]2O)c(=O)n1 [5-azacytidine, 5-Azacytidine]	inhibits	myelosuppression	nausea and vomiting	40-60%	significantly reduced to the basal level	decreased the activity of the early p97 promoter in a dose dependent manner
Nc1ncn([C@H]2C[C@H](O)[C@@H](CO)O2)c(=O)n1 [decitabine, 5-Aza-20-deoxycytidine]	–	myelosuppression	nausea and vomiting	–	–	–
